# Test results as given in US20090325920A1, “METHODS FOR THE TREATMENT OF A TRAUMATIC CENTRAL NERVOUS SYSTEM INJURY” (priority 2005, published 2009).
# Tests used:
# [1] = Solubility of progesterone in carriers; format: physicochemical
# [2] = system: adults with blunt TBI, Glasgow Coma Scale score 4-12
# Text: We also hoped to detect signals of activity.
# According to the U.S. Food and Drug Administration, an “adverse event” is any undesirable medical event occurring to a subject in a clinical trial, whether or not related to the study drug. This includes events not seen at baseline, or worsened if present at baseline. “Serious adverse events” are defined as death, immediate risk of death, or suspicion that use or continued use would result in the patient's death, prolongation of existing hospitalization, persistent or significant disability/incapacity, or a congenital anomaly/birth defect.
# These included any thromboembolic event (deep vein thrombosis, thrombophlebitis, ischemic myocardial infarction, pulmonary embolism, stroke or transient ischemic attack), elevated liver enzymes, temperature elevation, allergic reactions, and hyperglycemia. […] An independent internal safety monitor made the determination if an adverse event was associated with study treatment. Both the FDA and an independent NIH-appointed data safety monitoring board independently reviewed these determinations.
# Selection of participants: Consecutive adult victims of blunt TBI who reached Grady within 11 hours of injury with a post-stabilization or “index” Glasgow Coma Scale score (iGCS) of 4-12 were eligible for enrollment (FIG. 5).
# Interventions: Following proxy consent, patients were placed in one of 8 clinical subgroups defined by gender (male versus female), race (black versus all others) and TBI severity (moderate versus severe). […] This asymmetric approach was adopted at the request of our NIH-appointed DSMB to maximize the number of patients receiving study drug while maintaining blinding.
# Whenever a patient was enrolled, the next kit in sequence for that subgroup was used to prepare infusions. […] The remaining vials were used to prepare 5 subsequent 12-hour infusions at the same standard rate of 10 mls/hour for a total of 3 days of treatment. Details of drug monitoring are reported elsewhere (Wright et al. (2005) J Clin Pharmacol 45(6):640-648).
# Methods of Measurement: To assess drug safety, study personnel rounded daily to document the occurrence of adverse events (AEs) or serious adverse events (SAEs). Hourly vital signs (blood pressure, heart rate, respiratory rate, temperature, and pulse oximetry), intracranial pressure readings, and other parameters (mean arterial pressure, cerebral perfusion pressure, and fluid balance), were abstracted from each patient's chart. Laboratory values were obtained from the hospital's information system, and concomitant medications and interventions were noted.
# Whenever an SAE occurred, an independent board-certified neurosurgeon assessed its potential relationship to study treatment using pre-defined scale. SABs were reported within 24 hours to the Institutional Review Board (IRB), our NIH-appointed Data Safety Monitoring Board (DSMB), and the U.S. Food and Drug Administration. All other adverse events were reported to on a weekly basis.
# The infusion was stopped if a patient experienced an anaphylactic reaction, a major thromboembolic event, an unexplained elevation of serum aspartate aminotransferase (AST) or alanine aminotransferase (ALT) to a level greater than 5,000 IU, or a serum total bilirubin level greater than 10 mg/dl. […] These rules were based on O'Brien-Fleming boundaries (O'Brien and Fleming (1979) Biometrics 35(3):549-556), constructed using an alpha spending approach (DeMets and Lan (1994) Statistics in Medicine 13(13-14):1341-1352; discussion 1353-1346).
# Primary Data Analysis—Treatment and placebo groups were compared with respect to a variety of demographic, historical and prehospital characteristics to ensure that important independent predictors of outcome were equally distributed.
smiles,measurement,setting,value
"CC(=O)[C@H]1CC[C@H]2[C@@H]3CCC4=CC(=O)CC[C@]4(C)[C@H]3CC[C@]12C [progesterone, pregn-4-ene-3,20-dione]",solubility,[1],soluble only in alcohol
same,amount dissolved into solution,[1]; Intralipid 20%,up to 4 gm per 1 liter of intralipid
same,30-day adverse event rate: Acute respiratory distress syndrome,"[2]; both, human, in vivo, 30 days",2.6%
same,30-day adverse event rate: Cardiac Arrhythmia,"[2]; both, human, in vivo, 30 days",5.2%
same,30-day adverse event rate: Cholestatic Jaundice,"[2]; both, human, in vivo, 30 days",6.5%
same,30-day adverse event rate: Fever,"[2]; both, human, in vivo, 30 days",70.1%
same,30-day adverse event rate: Gastrointestinal Bleed,"[2]; both, human, in vivo, 30 days",5.2%
same,30-day adverse event rate: Hyperglycemia-non DM,"[2]; both, human, in vivo, 30 days",27.3%
same,30-day adverse event rate: Hypertension,"[2]; both, human, in vivo, 30 days",11.7%
same,30-day adverse event rate: Hypotension,"[2]; both, human, in vivo, 30 days",9.1%
same,30-day adverse event rate: Hypothermia,"[2]; both, human, in vivo, 30 days",5.2%
same,30-day adverse event rate: Hypoxemia,"[2]; both, human, in vivo, 30 days",11.7%
same,30-day adverse event rate: Increase Liver Enzyme,"[2]; both, human, in vivo, 30 days",6.5%
same,30-day adverse event rate: Phlebitis at Injection Site,"[2]; both, human, in vivo, 30 days",1.3%
same,30-day adverse event rate: Rash or Hives,"[2]; both, human, in vivo, 30 days",2.6%
same,30-day adverse event rate: Seizures,"[2]; both, human, in vivo, 30 days",5.2%
same,30-day adverse event rate: Shock,"[2]; both, human, in vivo, 30 days",2.6%
same,30-day adverse event rate: Suspected Pneumonia,"[2]; both, human, in vivo, 30 days",11.7%
same,30-day adverse event rate: Syndrome of inappropriate ADH,"[2]; both, human, in vivo, 30 days",1.3%
same,30-day adverse event rate: Tachycardia,"[2]; both, human, in vivo, 30 days",24.7%
same,30-day adverse event rate: Thromboembolic Disease,"[2]; both, human, in vivo, 30 days",3.9%
same,Mean Duration of Pressures Exceeding Threshold Values: CPP < 60,[2]; in vivo,6.9 h
same,Mean Duration of Pressures Exceeding Threshold Values: ICP > 25,[2]; in vivo,5.0 h
same,Mean Duration of Pressures Exceeding Threshold Values: MAP < 70,[2]; in vivo,2.5 h
same,Mean Duration of Pressures Exceeding Threshold Values: Systolic BP < 90,[2]; in vivo,2.7 h
same,Mean Frequency of Pressures Exceeding Threshold Values: CPP < 60,[2]; in vivo,92.9 Rate/1000 consecutive readings
same,Mean Frequency of Pressures Exceeding Threshold Values: ICP > 25,[2]; in vivo,70.2 Rate/1000 consecutive readings
same,Mean Frequency of Pressures Exceeding Threshold Values: MAP < 70,[2]; in vivo,29.5 Rate/1000 consecutive readings
same,Mean Frequency of Pressures Exceeding Threshold Values: Systolic BP < 90,[2]; in vivo,32.1 Rate/1000 consecutive readings
same,Percent of Patients with Clinical Values Exceeding the Threshold: CPP < 60,[2]; in vivo,48.7%
same,Percent of Patients with Clinical Values Exceeding the Threshold: ICP > 25,[2]; in vivo,32.4%
same,Percent of Patients with Clinical Values Exceeding the Threshold: MAP < 70,[2]; in vivo,29.0%
same,Percent of Patients with Clinical Values Exceeding the Threshold: Systolic BP < 90,[2]; in vivo,29.0%
same,adverse events specifically ascribed to administration,[2]; in vivo,two cases of superficial phlebitis at the IV site
same,aggregate and individual rates of adverse and serious adverse events versus placebo,[2]; in vivo,not different between groups
same,patients who developed a deep vein thrombosis,[2]; in vivo,Three patients
same,serious adverse events attributed to study drug,[2]; in vivo,No serious adverse events were attributed to progesterone
same,slope of treatment by time interaction term for mean temperature,[2]; in vivo,−0.0055
same,30-day adverse event rate: Central nervous system infection,"[2]; progesterone group, n=77",1.3%
same,30-day adverse event rate: Death within 30 days,"[2]; progesterone group, n=77",13.0%
same,30-day adverse event rate: Sepsis,"[2]; progesterone group, n=77",2.6%
